From article PMC10235067, “Increased renal elimination of endogenous and synthetic pyrimidine nucleosides in concentrative nucleoside transporter 1 deficient mice” (Nature Communications, 2023)

System: CNT1

| Structure (SMILES) | concentration in urine, Slc28a1+/+ vs Slc28a1-/- (12 h starvation) | fold increase of content in urine of Slc28a1-/- mice (Slc28a1-/- vs Slc28a1+/+, urine collected over 12 h starvation, 8-week-old mice, n = 6) |
| --- | --- | --- |
| Nc1nc2c(ncn2[C@@H]2O[C@H](CO)[C@@H](O)[C@H]2O)c(=O)[nH]1 [Guanosine] | not significantly different |  |
| Cc1cn([C@H]2C[C@H](O)[C@@H](CO)O2)c(=O)[nH]c1=O [Thymidine] |  | 7.5 fold |
